# Results from patent publication US11905537B2, “Bifunction chemical epigenetic modifiers and methods of use” (The University of North Carolina at Chapel Hill, priority 2017, dated 2024).
# Values joined by “and” are separate entries in the source; they are usually repeats but may differ in a detail not shown here. Identical values can stand only once.
# Key:
# Type in all cases: cell-based, human
# [1] = tested on: BFP reporter gene downstream of a tre3g promoter; assay: BFP reporter activation in HEK 293T cells with dCas9 systems, flow cytometry
# Source text: To test for changes in gene expression, human embryonic kidney (HEK) 293T cells were transfected with a BFP reporter gene downstream of a tre3g promoter and performed flow cytometry on at least 100,000 cells after co-expressing the gRNA and dCas9 machinery(Ma, D. et al. Nat. Commun. 7, 13056 (2016)). As a benchmark control for gene activation, a dCas9-p300 fusion protein known to increase expression was used (Hilton, I. B. et al., Nat. Biotechnol. 33, 510-517 (2015)). Using a gRNA that targets the tre3g promoter at six interspaced sites, the dCas9-p300 increased BFP expression 14-fold compared to the non-targeting (NT) control gRNA (FIG. 21A, p<0.05). Next, activating the reporter gene with a plasmid expressing dCas9 (N-terminus)-FKBPx2 (C-terminus) was tested using three predicted activating bifunctional CEMs.
# Cell culture: Low passage (p30-40) HEK 293T cells were cultured with high-glucose DMEM (Corning, 10-013-CV) supplemented with 10% FBS serum (Atlantic Biologicals, S11550), 10 mM HEPES (Corning, 25-060-Cl), NEAA (Gibco, 11140-050), Pen/Strep, and 55 μM 2-Mercaptoethanol. Cells were passaged every 2-5 days and maintained at 10-90% confluency in an incubator at 37° C. and 5% CO2.
# Cell Transfection: For FIG. 21, HEK 293T cells were split into 12-well plates with 100,000 cells per well. The next day, PEI (polyethlenimine, Polysciences #23966-1) transfection was done with 1 μg of DNA, 3 μL of PEI, and 100 μL of Optimem (Gibco, 31985070). For FIGS. 21A, 21B, 22, and 23 we transfected with 0.1 μg BFP reporter; 0.7 μg dCas9-X; 0.2 μg gRNA. For FIG. 19C, FIG. 19D, FIG. 24, and FIG. 24 we transfected with 0.1 μg BFP reporter; 0.5 μg dCas9-X; 0.2 μg scFv-FKBP or ms2-FKBP; 0.2 μg gRNA. Media was change 16 hours after transfection with fresh media, with or without bifunctional CEMa addition. After 48 hours of bifunctional CEMa exposure, cells were isolated for flow cytometry analysis. For FIG. 23, HEK 293T cells were split into 6-well plates with 200,000 cells per well. The next day, PIE transfection was done with 3 μg of DNA, 9 μL of PEI, and 200 μL of Optimem. For FIGS. 23A-C and 26, 3 μg of gRNA was added in equal ratio (if applicable). Media was change 16 hours after transfection with fresh media, with or without bifunctional CEMa addition. After 48 hours of bifunctional CEMa exposure, cells were isolate for RNA extraction.
# Flow cytometry: Flow cytometry was performed with the Attune Nxt as previously described (Chiarella, A. M. et al. Biochemistry 57, 2756-2761 (2018)). The data presented represents three separate transfections and significance was determined with the student's t-test.
# MYOD1 = assay: Endogenous MYOD1 activation in HEK 293T cells, qRT-PCR; conditions: 200 nM, 48 hours
# Source text: (§1) Next, the plasmid-optimized dCas9-CEMa system was adapted to target endogenous mammalian genes. Because an endogenous gene was being targeted rather than hundreds of transiently expressing reporter plasmids, the dCas9 machinery (dCas9-p300, dCas9-FKBPx2 and/or MCP-FKBP) was chosen to transfect HEK 293T cells. After the cells were stably selected for integration of the dCas9- and MCP-expressing plasmids, the gRNAs that were designed to target endogenous genes were transfected. To determine the time point at which to observe more efficient dCas9 regulation by this method, cells expressing dCas9-p300 were transfected with gRNAs for myogenic differentiation (MYOD1), the RNA was extracted and qRT-PCR was performed after 24, 48 and 72 hours post transfection. […]
# (§2) RNA extraction: For FIGS. 23 and 26, cells from the 6-well plates were isolated. […] RNA extraction was performed with an RNeasy Plus Mini Kit (Qiagen, 74134) and the relative enrichment of mRNA was quantified with the RNA-to-CTr 1-step kit (Thermo Fisher Scientific, 4389986). […]
# CXCR4 = assay: Endogenous CXCR4 activation in HEK 293T cells, qRT-PCR; conditions: 48 hours
# Source text: as §1, §2
# ASCL1 = assay: Endogenous ASCL1 activation in HEK 293T cells, qRT-PCR; conditions: 48 hours
# Source text: as §1, §2
# HEK 293T cells = assay: Cell health by cell density and morphology in the dose curve; conditions: concentrations of 500 nM and above, data not shown
# Protocol: The dCas9 “SunTag” system was adapted to be compatible with the bifunctional CEMa technology(Tanenbaum, M. E. et al. Cell 159, 635-646 (2014); (Chavez, A. et al. Nat. Methods 13, 563-567 (2016)). Using the improved dCas9-CEMa system (dCas9-FKBPx2, ms2-FKBP, tre3g ×6 gRNA, BFP reporter), the effects of a global epigenetic inhibitor in combination with a gene-specific approach was tested. After the cells were transfected, they were treated with 200 nM of CEM87 and 2.5 μM of Entinostat. BFP expression increased 34-fold compared to unreated cells as measured by flow cytometry. More specifically, A dCas9-SunTagx10 plasmid was used that expresses an array of 10 yeast-specific GCN4 (gene control protein 4) peptides from the C-terminus of the dCas9, and co-transfected with a single chain variable fragment (scFv), (made to be GCN4-specific) fused to FKBP. Theoretically, as many as 10 FKBP molecules per dCas9 would be recruited to the gene of interest, increasing the bifunctional CEMa recruitment power. With the adapted SunTag method and the tre3g ×6 gRNA, 48 hours of 200 nM CEM87 exposure increased expression 16-fold compared to untreated cells (FIG. 24, p<0.001). […] With the improved dCas9 system and the most efficient bifunctional CEMa, CEM87, a dose-curve was performed and the ideal concentration for maximum expression was determined to be 200 nM (FIG. 21D). […]
# [2] = dCas9-FKBPx2 (FIG. 21B legend: dCas9-FKBPx1), 200 nM, 48 hours, vs untreated cells
# [3] = dCas9-SunTagx10 with scFv-FKBP, tre3g ×6 gRNA, 200 nM, 48 hours, vs untreated
smiles,measurement,setting,value
COc1ccc2c(c1)C(c1ccc(Cl)cc1)=N[C@@H](CC(=O)NCc1cn(CCOCCOCCOCCNC(=O)CCSCCC[C@@H]3/C=C(\C)C[C@H](C)C[C@H](OC)[C@H]4O[C@@](O)(C(=O)C(=O)N5CCCC[C@H]5C(=O)O[C@H](/C(C)=C/[C@@H]5CC[C@@H](O)[C@H](OC)C5)[C@H](C)[C@@H](O)CC3=O)[C@H](C)C[C@@H]4OC)nn1)c1nnc(C)n1-2 [CEM87],increase in BFP expression in combination with HDACi,"[1]; 200 nM CEM87 plus 2.5 μM entinostat, dCas9-FKBPx2, ms2-FKBP, vs untreated cells",34 fold
same,increase in BFP expression,[1]; [2],7.5 fold and ~7 fold
same,increase in BFP expression,"[1]; dCas9-FKBPx2, 6×-tre3g gRNA, 200 nM, 48 hours, vs untreated",5 fold
same,increase in BFP expression,"[1]; dCas9-FKBPx2, ms2-FKBP, tre3g ×6 gRNA, 200 nM, vs untreated cells",18 fold
same,activation of BFP expression,"[1]; dCas9-FKBPx2, multiplex gRNA, 200 nM, 48 hours, vs untreated",4 fold
same,increase in BFP expression,"[1]; dCas9-FKBPx2, single site gRNA in gene body, 200 nM, 48 hours, vs untreated",2 fold
same,effect on BFP expression with dCas9-HA,"[1]; dCas9-HA (no FKBP recruitment site), 6×-tre3g gRNA, 200 nM, 48 hours",did not significantly affect the BFP expression
same,increase in BFP expression,[1]; [3],16 fold
same,activation of BFP expression,"[1]; dose curve, 10 nM, dCas9-FKBPx2, ms2-FKBP",2 fold
same,activation of BFP expression,"[1]; dose curve, 50 nM, dCas9-FKBPx2, ms2-FKBP",8 fold
same,ideal concentration for maximum expression,"[1]; dose curve, dCas9-FKBPx2, ms2-FKBP",200 nM
same,MYOD1 expression change with NT gRNAs,MYOD1; NT gRNA control cells,no significant changes in expression
same,increase in MYOD1 mRNA levels,"MYOD1; dCas9-FKBPx2 and ms2-FKBP, MYOD1 gRNAs, vs untreated, normalized to Gapdh",13 fold
same,change in CXCR4 expression with NT gRNA,CXCR4; NT gRNA control cells,less than 2 fold
same,increase in CXCR4 expression,"CXCR4; dCas9-FKBPx2 and ms2-FKBP, CXCR4 gRNAs, vs untreated",10 fold
same,increase in ASCL1 in NT samples,ASCL1; NT gRNA samples,less than 4 fold
same,increase in ASCL1 mRNA levels,"ASCL1; dCas9-FKBPx2 and ms2-FKBP, ASCL1 gRNAs, vs untreated",22 fold
same,cell health (cell density and morphology),HEK 293T cells,appeared less healthy
CO[C@H]1C[C@@H](C)C/C(C)=C/[C@@H](CCCSCCC(=O)NCCOCCOCCOCCn2cc(COc3ccc(CCc4nc5cc(-c6c(C)noc6C)ccc5n4CCN4CCOCC4)cc3F)nn2)C(=O)C[C@H](O)[C@@H](C)[C@@H](/C(C)=C/[C@@H]2CC[C@@H](O)[C@H](OC)C2)OC(=O)[C@@H]2CCCCN2C(=O)C(=O)[C@]2(O)O[C@H]1[C@@H](OC)C[C@H]2C [CEM114],increase in BFP expression,[1]; [2],1.6 fold
same,increase in BFP expression,"[1]; dCas9-FKBPx2, ms2-FKBP, tre3g ×6 gRNA, equivalent concentration, vs cells expressing NT gRNA",6 fold
same,increase in BFP expression,[1]; [3],2 fold
